Experimental findings from patent publication US7414110B2, “Human calcium channel compositions and methods” (Merck & Co., Inc., priority 1990, dated 2008) are described below.

Assay [1] has as its system calcium channels containing α1E subunits. Format: cell-based, human.
In assay [2] the target is T1, α1B-1α2bβ1-2 (Homo sapiens, UniProt Q00975, Y99N).
T1 construct: contains, in pcDNA1, a full-length coding region encoding α1B-1; expressed in transfected cells; host or cells: HEK293 cells, transient
Format: cell-based.
Target sequence in this assay (Q00975 whole entry Y99N): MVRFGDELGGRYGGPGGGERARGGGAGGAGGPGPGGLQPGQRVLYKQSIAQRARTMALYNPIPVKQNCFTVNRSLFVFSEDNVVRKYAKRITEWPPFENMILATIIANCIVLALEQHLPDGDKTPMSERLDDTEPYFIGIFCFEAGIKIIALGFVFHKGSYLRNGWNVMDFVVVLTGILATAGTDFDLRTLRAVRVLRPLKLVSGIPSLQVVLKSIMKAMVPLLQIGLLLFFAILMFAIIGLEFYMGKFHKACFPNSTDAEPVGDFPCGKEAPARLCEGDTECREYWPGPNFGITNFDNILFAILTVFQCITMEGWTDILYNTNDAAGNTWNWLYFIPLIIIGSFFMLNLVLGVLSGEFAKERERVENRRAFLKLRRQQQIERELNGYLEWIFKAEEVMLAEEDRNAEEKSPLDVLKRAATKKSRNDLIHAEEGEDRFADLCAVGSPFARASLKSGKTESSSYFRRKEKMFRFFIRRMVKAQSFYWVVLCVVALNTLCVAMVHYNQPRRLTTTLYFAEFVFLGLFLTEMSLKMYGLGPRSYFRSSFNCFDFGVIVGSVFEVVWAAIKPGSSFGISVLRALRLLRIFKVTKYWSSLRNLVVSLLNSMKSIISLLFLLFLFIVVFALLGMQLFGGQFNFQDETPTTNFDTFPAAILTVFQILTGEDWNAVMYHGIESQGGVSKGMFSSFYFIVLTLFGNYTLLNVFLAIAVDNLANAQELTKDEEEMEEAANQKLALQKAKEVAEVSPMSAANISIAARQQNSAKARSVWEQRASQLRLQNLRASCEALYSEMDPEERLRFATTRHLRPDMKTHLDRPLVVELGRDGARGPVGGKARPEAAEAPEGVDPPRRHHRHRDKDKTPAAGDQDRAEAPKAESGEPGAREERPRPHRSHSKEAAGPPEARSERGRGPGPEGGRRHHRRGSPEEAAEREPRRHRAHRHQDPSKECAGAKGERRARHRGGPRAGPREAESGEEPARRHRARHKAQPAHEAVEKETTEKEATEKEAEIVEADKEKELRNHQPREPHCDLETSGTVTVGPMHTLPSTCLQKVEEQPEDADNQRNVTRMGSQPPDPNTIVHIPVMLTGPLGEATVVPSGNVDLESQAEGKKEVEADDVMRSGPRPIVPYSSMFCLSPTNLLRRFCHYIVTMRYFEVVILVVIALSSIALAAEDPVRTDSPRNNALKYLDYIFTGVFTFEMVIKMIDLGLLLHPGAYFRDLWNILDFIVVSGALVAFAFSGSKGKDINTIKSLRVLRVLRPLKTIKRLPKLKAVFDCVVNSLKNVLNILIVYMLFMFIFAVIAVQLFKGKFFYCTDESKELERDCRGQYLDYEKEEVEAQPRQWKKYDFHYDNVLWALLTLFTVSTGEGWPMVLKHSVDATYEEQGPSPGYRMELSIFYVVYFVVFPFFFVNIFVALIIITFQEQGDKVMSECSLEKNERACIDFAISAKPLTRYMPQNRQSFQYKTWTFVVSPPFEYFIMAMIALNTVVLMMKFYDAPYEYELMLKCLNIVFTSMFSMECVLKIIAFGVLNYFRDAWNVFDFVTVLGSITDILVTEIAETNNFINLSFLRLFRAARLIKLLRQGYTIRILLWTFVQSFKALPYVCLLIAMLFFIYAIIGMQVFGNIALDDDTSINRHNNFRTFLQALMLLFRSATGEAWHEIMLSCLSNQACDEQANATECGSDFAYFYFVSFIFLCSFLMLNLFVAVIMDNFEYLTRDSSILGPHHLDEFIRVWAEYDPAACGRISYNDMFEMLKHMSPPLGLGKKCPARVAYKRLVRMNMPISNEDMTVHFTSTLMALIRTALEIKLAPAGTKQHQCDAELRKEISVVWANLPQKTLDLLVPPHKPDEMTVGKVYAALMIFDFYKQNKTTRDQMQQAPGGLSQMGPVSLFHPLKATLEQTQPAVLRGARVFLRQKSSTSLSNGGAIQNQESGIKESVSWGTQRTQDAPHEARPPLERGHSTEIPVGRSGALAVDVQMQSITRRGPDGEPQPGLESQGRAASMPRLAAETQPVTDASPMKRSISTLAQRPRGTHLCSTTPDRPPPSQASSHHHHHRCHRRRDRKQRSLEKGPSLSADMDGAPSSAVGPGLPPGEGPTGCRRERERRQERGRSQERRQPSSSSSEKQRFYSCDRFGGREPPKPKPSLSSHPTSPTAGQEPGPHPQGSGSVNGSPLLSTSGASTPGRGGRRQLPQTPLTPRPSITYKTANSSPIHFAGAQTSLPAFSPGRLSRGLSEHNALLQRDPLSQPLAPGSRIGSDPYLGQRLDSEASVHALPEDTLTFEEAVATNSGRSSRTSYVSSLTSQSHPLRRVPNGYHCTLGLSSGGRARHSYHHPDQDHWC
Target sequence in this assay (as listed by the source partner): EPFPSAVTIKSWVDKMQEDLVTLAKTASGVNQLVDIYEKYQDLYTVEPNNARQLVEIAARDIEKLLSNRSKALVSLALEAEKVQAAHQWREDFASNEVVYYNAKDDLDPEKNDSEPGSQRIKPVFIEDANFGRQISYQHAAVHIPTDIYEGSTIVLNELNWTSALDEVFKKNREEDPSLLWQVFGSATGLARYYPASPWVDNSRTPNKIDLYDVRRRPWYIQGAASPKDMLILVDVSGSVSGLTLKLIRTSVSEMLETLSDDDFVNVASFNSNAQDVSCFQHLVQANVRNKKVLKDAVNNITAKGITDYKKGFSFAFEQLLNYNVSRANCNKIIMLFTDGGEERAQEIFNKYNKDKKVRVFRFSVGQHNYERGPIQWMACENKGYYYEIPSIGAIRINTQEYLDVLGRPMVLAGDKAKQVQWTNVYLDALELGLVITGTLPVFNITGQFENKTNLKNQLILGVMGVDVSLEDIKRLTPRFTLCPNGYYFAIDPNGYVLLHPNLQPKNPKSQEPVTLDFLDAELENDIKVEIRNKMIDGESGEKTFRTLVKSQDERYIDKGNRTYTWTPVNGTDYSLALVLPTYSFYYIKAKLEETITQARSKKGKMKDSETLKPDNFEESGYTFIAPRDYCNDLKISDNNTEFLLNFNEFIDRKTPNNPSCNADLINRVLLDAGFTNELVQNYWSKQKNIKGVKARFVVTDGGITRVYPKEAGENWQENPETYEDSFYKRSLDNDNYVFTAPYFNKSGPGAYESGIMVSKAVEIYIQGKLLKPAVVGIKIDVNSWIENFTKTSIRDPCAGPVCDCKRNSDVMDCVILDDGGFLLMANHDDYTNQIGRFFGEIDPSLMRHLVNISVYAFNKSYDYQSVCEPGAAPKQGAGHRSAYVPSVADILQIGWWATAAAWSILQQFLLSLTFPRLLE
Target sequence in this assay (as listed by the source partner): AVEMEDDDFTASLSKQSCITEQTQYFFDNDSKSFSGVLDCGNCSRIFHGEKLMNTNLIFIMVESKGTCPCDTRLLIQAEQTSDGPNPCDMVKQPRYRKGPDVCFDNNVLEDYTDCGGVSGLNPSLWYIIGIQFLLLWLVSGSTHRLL
Target sequence in this assay (as listed by the source partner): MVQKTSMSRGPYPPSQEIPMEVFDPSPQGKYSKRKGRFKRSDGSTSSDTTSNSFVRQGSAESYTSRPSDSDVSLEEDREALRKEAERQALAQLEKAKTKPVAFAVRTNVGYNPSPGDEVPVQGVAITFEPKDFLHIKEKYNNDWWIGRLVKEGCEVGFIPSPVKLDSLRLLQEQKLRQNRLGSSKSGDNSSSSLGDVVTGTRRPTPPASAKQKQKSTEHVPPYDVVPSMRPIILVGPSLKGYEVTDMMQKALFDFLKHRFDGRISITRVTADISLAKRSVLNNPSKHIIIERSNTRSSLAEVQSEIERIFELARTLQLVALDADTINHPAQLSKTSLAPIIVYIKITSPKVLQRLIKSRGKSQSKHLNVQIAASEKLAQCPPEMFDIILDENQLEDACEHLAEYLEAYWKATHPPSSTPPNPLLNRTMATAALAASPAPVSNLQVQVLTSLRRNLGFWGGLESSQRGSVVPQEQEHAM

Assay [3] concerns the target T2, α1B-1, α2b and β1-2 subunits (Homo sapiens, UniProt Q00975, Y99N).
T2 construct: contains, in pcDNA1, a full-length coding region encoding α1B-1; expressed in transfected cells; host or cells: HEK293 cells, transient
Format: binding.

Assay [4] has as its system cells transfected with only β-galactosidase-encoding DNA or α2bβ-encoding DNA.
Assay [5] has as its system untransfected HEK293 cells.
In assay [6] the test system is untransfected HEK 293 cells. As to the kind of experiment: whole-cell patch clamp, untransfected HEK 293 cells. Format: cell-based, human. The conditions noted are these: with or without cAMP or forskolin.
Assay [7] has as its system human neuronal calcium channel α2 and β1 subunits. As to the kind of experiment: two-electrode voltage clamp, oöcytes injected with α2 and β1 transcripts. The conditions noted are these: n=11.
Assay [8] deals with human neuronal calcium channel α1D and β1 subunits (Homo sapiens, UniProt Q01668, S1346F/Y1433H). As to the kind of experiment: two-electrode voltage clamp, oöcytes injected with α1D and β1 transcripts. The conditions noted are these: two of four oöcytes; compared with α1D, α2, β1 oöcytes.
The target in assay [9] is human neuronal calcium channel α1D and α2 subunits (Homo sapiens, UniProt Q01668, S1346F/Y1433H). The experiment in a line: two-electrode voltage clamp, oöcytes injected with α1D and α2 transcripts. The conditions noted are these: 15-30 nA currents; holding potential −90 mV.
For assay [10], the target named is T1, α1B-1α2bβ1-2. Format: binding.
Target sequence in this assay (Q00975 whole entry Y99N): as the sequence (Q00975 whole entry Y99N) above
The target of the next assay is T3, α1B-1α2bβ1-3 (Homo sapiens, UniProt Q00975, Y99N).
T3 construct: contains, in pcDNA1, a full-length coding region encoding α1B-1; expressed in transfected cells; host or cells: HEK293 cells, transient
Format: binding.

For a further assay, the target named is T4, α1B-1β1-2 (Homo sapiens, UniProt Q00975, Y99N).
T4 construct: contains, in pcDNA1, a full-length coding region encoding α1B-1; expressed in transfected cells; host or cells: HEK293 cells, transient
Format: binding.

For another assay, the target named is T5, α1B-1β1-3 (Homo sapiens, UniProt Q00975, Y99N).
T5 construct: contains, in pcDNA1, a full-length coding region encoding α1B-1; expressed in transfected cells; host or cells: HEK293 cells, transient
Format: binding.

In another assay the target is T6, α1B-1α2b (Homo sapiens, UniProt Q00975, Y99N).
T6 construct: contains, in pcDNA1, a full-length coding region encoding α1B-1; expressed in transfected cells; host or cells: HEK293 cells, transient
Format: binding.

In the next assay the target is T7, α1B-1 (Homo sapiens, UniProt Q00975, Y99N).
T7 construct: contains, in pcDNA1, a full-length coding region encoding α1B-1; expressed in transfected cells; host or cells: HEK293 cells, transient
The class given is binding.

For the next assay, the target named is T8, α1B-2α2bβ1-2 (Homo sapiens, UniProt Q00975, L2215R/Y99N).
T8 construct: Full-length DNA clones and corresponding RNA transcripts, encoding α1, including splice variants of α1A, α1D, α1B; expressed in transfected cells; host or cells: HEK293 cells, transient
Format: binding.

In the next assay the target is T9, α1B-2α2bβ1-3 (Homo sapiens, UniProt Q00975, L2215R/Y99N).
T9 construct: Full-length DNA clones and corresponding RNA transcripts, encoding α1, including splice variants of α1A, α1D, α1B; expressed in transfected cells; host or cells: HEK293 cells, transient
Format: binding.

A further assay has as its target T10, α1B-2β1-2 (Homo sapiens, UniProt Q00975, L2215R/Y99N).
T10 construct: Full-length DNA clones and corresponding RNA transcripts, encoding α1, including splice variants of α1A, α1D, α1B; expressed in transfected cells; host or cells: HEK293 cells, transient
Format: binding.

Another assay deals with T11, α1B-2β1-3 (Homo sapiens, UniProt Q00975, L2215R/Y99N).
T11 construct: Full-length DNA clones and corresponding RNA transcripts, encoding α1, including splice variants of α1A, α1D, α1B; expressed in transfected cells; host or cells: HEK293 cells, transient
Format: binding.

The target of a further assay is T12, α1B-2α2b (Homo sapiens, UniProt Q00975, L2215R/Y99N).
T12 construct: Full-length DNA clones and corresponding RNA transcripts, encoding α1, including splice variants of α1A, α1D, α1B; expressed in transfected cells; host or cells: HEK293 cells, transient
Format: binding.

For the next assay, the target named is T13, α1B-2 (Homo sapiens, UniProt Q00975, L2215R/Y99N).
T13 construct: Full-length DNA clones and corresponding RNA transcripts, encoding α1, including splice variants of α1A, α1D, α1B; expressed in transfected cells; host or cells: HEK293 cells, transient
Format: binding.

For assay [11], the system named is subunit combinations lacking either the α1B-1 or the α1B-2 subunit.

T7 sequence (Q00975 whole entry Y99N): as above
T2 sequence (Q00975 whole entry Y99N): as above
T6 sequence (Q00975 whole entry Y99N): as above

Regarding “ω-Aga-IVA: funnel web spider toxin that blocks certain high voltage activated channels (KKKCIAKDYGRCKWGGTPCCRGRGCICSIMGTNCECKPRLIMEGLGLA)”, the “sensitivity of channels containing α1E subunits” value in assay [1] is “sensitive”.

In the case of `[Cd]` [cadmium], the “blockage of IBa” value on α1B-1α2bβ1-2 [2] (50 μM) is “rapid, complete, and reversible”.

For the compound `C[C@@H](O)[C@@H]1NC(=O)[C@H](Cc2ccc(O)cc2)NC(=O)[C@@H]2C[C@@H](O)CN2C(=O)[C@H](CC(N)=O)NC(=O)[C@@H]2CSSC[C@@H]3NC(=O)[C@H](CO)NC(=O)[C@H](CO)NC(=O)CNC(=O)[C@@H]4C[C@@H](O)CN4C(=O)[C@H](CO)NC(=O)[C@H](CCCCN)NC(=O)[C@@H](N)CSSC[C@H](NC(=O)[C@H](CSSC[C@@H](C(=O)N[C@@H](Cc4ccc(O)cc4)C(N)=O)NC(=O)[C@H](CCCNC(=N)N)NC(=O)[C@H](CCCCN)NC1=O)NC(=O)[C@H](CC(N)=O)NC(=O)[C@H](Cc1ccc(O)cc1)NC(=O)[C@H](CO)NC(=O)[C@H]([C@@H](C)O)NC(=O)[C@@H]1C[C@@H](O)CN1C(=O)[C@H](CO)NC3=O)C(=O)N[C@@H](CCCNC(=N)N)C(=O)N[C@@H](CO)C(=O)N2` [ωCgTX], on α1B-1α2bβ1-2 [2], the block of activity entry is given as “blocked the activity completely”, the block of channels result is “blocked irreversibly” and the “time to complete block” value is no more than 2 min. The “binding capacity (Bmax)” value in assay [3] is on record as 28,710±11,950 sites per cell. Further, the specific binding result in assay [4] is on record as “no specific binding”. The “detectable ω-CgTx GVIA binding sites” value in assay [5] was “do not express detectable”.

On to `COC(=O)C1=C(C)NC(C)=C([N+](=O)[O-])C1c1ccccc1C(F)(F)F` (stereo not drawn) [Bay K 8644], for which, in [6], the “effects of Bay K 8644 on currents” value was “No such effects”. The “effect on IBa” value at α1B-1α2bβ1-2 [2] (n=4) is listed as “no discernable effect”. Also, the “sensitivity of inward barium currents to Bay K 8644” value in [7] is listed as “insensitive”. The “sensitivity of Ba2+ currents to Bay K 8644” value in [8] is “similar”. Further, the “response of barium currents to Bay K 8644” value in assay [9] is “little or no response”.

`C[C@@H](O)[C@@H]1NC(=O)[C@H](Cc2ccc(O)cc2)NC(=O)[C@@H]2C[C@@H](O)CN2C(=O)[C@H](CC(N)=O)NC(=O)[C@@H]2CSSC[C@@H]3NC(=O)[C@H](CO)NC(=O)[C@H](CO)NC(=O)CNC(=O)[C@@H]4C[C@@H](O)CN4C(=O)[C@H](CO)NC(=O)[C@H](CCCCN)NC(=O)[C@@H](N)CSSC[C@H](NC(=O)[C@H](CSSC[C@@H](C(=O)N[C@@H](Cc4ccc(O)cc4)C(N)=O)NC(=O)[C@H](CCCNC(=N)N)NC(=O)[C@H](CCCCN)NC1=O)NC(=O)[C@H](CC(N)=O)NC(=O)[C@H](Cc1ccc(O)cc1)NC(=O)[C@H](CO)NC(=O)[C@H]([C@@H](C)O)NC(=O)[C@@H]1C[C@@H](O)CN1C(=O)[C@H](CO)NC3=O)C(=O)N[C@@H](CCCNC(=N)N)C(=O)N[C@@H](CO)C(=O)N2` [125I-ω-CgTx GVIA]: the “Bmax (sites/cell)” value on α1B-1α2bβ1-2 [10] is 45,324 ± 15,606 sites/cell; on α1B-1α2bβ1-3, 91,004 ± 37,654 sites/cell; at α1B-1β1-2, 5,756 ± 2,163 sites/cell; on α1B-1β1-3, 8,729 ± 2,980 sites/cell; on α1B-1α2b, 2,256 ± 356 sites/cell; at α1B-1 it was 757 ± 128 sites/cell. In addition, the “Bmax (sites/cell)” value on α1B-2α2bβ1-2 is reported as 19,371 ± 3,798 sites/cell; on α1B-2α2bβ1-3, 37,652 ± 8,129 sites/cell; on α1B-2β1-2, 2,126 ± 412 sites/cell; on α1B-2β1-3, 2,944 ± 1,168 sites/cell. In addition, the “number of binding sites” value on α1B-1 is on record as “approximately 750 binding sites/cell”. Also, the “Kd (pM)” value at α1B-2α2b and on α1B-2 was “too low for reliable Scatchard analysis” throughout. The “detectable 125I-ω-CgTx GVIA binding” value in [11] was no more than 600 sites/cell.
